Kd, Ki and % of control data for three compounds are collected here from ChEMBL document CHEMBL5212743, “Selectivity Literature for EUbOPEN Chemogenomics Library wave 3” (2023).

For assay [1], the target named is MAP kinase-interacting serine/threonine-protein kinase 2 (Homo sapiens, UniProt Q9HBH9). Nature of the assay: Selectivity interaction (KinomeScan (DiscoverX, competition-binding assay)) EUB0000637a MKNK2.
Assay [2] addresses Dual specificity protein kinase CLK1 (Homo sapiens, UniProt P49759). Nature of the assay: Selectivity interaction (KinomeScan (DiscoverX, competition-binding assay)) EUB0000637a CLK1.
Assay [3] concerns the target Vascular endothelial growth factor receptor 1 (Homo sapiens, UniProt P17948). Nature of the assay: Selectivity interaction (KinomeScan (DiscoverX, competition-binding assay)) EUB0000637a FLT1.
For assay [4], the target named is 5-hydroxytryptamine receptor 2B (Homo sapiens, UniProt P41595). Nature of the assay: Selectivity interaction (GPCR panel (PDSP screen)) EUB0000710a HTR2B.
Chain of 5-hydroxytryptamine receptor 2B (P41595 whole entry): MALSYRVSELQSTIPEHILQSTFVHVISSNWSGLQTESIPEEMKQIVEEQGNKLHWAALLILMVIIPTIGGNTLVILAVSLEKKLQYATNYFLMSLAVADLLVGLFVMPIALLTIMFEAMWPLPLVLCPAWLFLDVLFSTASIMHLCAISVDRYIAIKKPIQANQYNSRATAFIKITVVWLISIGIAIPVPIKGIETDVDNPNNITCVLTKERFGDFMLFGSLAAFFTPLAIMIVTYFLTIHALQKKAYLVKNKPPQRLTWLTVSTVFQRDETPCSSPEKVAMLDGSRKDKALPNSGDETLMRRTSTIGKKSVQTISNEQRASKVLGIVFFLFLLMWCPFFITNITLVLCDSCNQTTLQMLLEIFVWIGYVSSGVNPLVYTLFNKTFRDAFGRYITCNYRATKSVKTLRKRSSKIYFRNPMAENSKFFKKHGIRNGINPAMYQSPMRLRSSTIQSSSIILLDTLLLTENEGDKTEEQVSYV
For assay [5], the target named is T1, Serine/threonine-protein kinase TAO3 (Homo sapiens) (UniProt Q9H2K8).
T1 sequence (whole entry): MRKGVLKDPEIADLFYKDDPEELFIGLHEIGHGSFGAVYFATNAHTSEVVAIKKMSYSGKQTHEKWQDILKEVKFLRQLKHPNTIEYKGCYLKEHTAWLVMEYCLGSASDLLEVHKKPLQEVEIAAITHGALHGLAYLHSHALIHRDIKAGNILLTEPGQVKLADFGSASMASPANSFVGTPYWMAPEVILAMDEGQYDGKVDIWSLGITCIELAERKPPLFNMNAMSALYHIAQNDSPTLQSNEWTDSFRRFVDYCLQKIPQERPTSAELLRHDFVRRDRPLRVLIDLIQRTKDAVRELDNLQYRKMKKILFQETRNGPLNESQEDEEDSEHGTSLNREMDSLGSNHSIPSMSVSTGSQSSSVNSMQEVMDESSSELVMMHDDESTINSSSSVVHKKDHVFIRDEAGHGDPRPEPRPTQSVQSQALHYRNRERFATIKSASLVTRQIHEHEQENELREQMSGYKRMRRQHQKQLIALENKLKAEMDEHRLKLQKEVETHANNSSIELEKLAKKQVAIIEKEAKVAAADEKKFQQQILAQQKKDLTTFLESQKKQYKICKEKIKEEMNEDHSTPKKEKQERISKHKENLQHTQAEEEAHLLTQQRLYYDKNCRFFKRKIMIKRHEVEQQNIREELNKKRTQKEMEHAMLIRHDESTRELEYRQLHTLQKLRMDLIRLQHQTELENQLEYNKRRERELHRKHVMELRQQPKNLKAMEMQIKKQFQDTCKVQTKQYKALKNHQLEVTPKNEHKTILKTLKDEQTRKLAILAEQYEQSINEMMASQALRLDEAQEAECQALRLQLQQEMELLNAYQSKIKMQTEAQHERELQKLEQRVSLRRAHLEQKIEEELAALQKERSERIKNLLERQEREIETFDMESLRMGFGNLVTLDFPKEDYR
Kind of assay: Selectivity interaction (KinomeScan (DiscoverX)) EUB0000710a TAOK3. Particulars: at 1 µM.

In assay [6] the target is T2, Myosin-IIIb (Homo sapiens) (UniProt Q8WXR4).
T2 sequence (whole entry): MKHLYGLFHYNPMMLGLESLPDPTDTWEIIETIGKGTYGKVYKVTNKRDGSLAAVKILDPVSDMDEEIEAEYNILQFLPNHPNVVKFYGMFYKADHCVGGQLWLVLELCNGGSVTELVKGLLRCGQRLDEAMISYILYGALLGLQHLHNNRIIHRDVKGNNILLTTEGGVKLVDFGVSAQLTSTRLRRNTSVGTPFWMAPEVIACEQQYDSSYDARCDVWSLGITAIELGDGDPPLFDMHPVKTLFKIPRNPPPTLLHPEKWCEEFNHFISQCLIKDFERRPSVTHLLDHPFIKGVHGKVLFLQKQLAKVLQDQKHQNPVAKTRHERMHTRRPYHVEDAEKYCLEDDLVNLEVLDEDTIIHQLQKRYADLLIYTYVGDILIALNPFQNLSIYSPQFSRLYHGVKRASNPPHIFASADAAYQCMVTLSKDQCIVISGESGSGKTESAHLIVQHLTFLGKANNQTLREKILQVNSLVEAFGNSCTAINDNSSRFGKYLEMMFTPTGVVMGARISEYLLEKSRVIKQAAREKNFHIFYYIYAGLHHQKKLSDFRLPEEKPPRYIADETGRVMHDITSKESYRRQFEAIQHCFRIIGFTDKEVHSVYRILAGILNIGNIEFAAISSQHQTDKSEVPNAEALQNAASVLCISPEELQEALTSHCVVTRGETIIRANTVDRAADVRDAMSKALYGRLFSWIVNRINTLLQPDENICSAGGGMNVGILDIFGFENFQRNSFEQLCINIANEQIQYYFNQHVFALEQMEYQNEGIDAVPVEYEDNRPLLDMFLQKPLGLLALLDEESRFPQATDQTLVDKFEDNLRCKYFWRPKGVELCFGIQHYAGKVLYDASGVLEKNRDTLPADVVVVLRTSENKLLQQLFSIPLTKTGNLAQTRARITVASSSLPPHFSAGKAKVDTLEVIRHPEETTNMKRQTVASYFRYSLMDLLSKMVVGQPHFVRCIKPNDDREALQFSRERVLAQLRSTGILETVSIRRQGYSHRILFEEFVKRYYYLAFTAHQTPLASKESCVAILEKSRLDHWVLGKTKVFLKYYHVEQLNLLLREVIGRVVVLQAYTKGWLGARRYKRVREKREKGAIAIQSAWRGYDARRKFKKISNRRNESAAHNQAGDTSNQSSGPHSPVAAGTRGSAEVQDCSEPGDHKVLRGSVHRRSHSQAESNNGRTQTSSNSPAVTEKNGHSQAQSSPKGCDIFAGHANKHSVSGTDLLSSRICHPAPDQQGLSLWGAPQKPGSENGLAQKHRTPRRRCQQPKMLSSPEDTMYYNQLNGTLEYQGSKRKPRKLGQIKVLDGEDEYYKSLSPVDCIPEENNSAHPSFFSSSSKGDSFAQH
Kind of assay: Selectivity interaction (KinomeScan (DiscoverX)) EUB0000710a MYO3B. The settings on record: at 1 µM.

For assay [7], the target named is Epithelial discoidin domain-containing receptor 1 (Homo sapiens, UniProt Q08345). Nature of the assay: Selectivity interaction (KinomeScan (DiscoverX)) EUB0000710a DDR1. Particulars: at 1 µM.
Chain of Epithelial discoidin domain-containing receptor 1 (Q08345 whole entry, the tested form may be a part): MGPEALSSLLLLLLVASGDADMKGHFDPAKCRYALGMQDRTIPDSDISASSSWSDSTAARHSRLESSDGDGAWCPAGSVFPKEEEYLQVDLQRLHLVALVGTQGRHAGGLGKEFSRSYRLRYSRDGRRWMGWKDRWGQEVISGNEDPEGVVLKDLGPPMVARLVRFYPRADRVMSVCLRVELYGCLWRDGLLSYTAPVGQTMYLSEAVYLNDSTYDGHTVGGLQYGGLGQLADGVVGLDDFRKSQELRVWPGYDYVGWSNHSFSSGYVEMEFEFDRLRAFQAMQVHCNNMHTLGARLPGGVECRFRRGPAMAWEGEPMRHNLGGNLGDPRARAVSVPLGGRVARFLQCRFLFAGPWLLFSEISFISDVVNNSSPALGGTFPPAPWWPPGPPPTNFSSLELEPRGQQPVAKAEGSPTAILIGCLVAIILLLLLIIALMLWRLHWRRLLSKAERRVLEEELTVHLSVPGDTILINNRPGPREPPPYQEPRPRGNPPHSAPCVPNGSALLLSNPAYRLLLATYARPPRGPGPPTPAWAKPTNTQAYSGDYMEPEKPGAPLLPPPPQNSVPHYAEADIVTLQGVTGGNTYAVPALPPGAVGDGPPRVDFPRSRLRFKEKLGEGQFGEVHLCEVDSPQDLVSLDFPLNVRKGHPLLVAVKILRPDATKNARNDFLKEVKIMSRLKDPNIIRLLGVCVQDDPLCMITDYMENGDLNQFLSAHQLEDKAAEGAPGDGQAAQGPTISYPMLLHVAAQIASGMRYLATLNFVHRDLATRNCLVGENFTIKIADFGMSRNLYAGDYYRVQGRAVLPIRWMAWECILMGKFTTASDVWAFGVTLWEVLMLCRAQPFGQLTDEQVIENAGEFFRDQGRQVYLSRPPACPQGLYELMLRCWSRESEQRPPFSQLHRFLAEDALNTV
Assay [8] has as its system Epidermal growth factor receptor (Homo sapiens), P00533 [L861Q]. Kind of assay: Selectivity interaction (KinomeScan (DiscoverX)) EUB0000710a EGFR. Particulars: at 1 µM.
The target of assay [9] is Serine/threonine-protein kinase TNNI3K (Homo sapiens) (UniProt Q59H18). Nature of the assay: Selectivity interaction (KinomeScan (DiscoverX)) EUB0000710a TNNI3K. Particulars: at 1 µM.
Chain of Serine/threonine-protein kinase TNNI3K (Homo sapiens) (Q59H18 whole entry, canonical isoform): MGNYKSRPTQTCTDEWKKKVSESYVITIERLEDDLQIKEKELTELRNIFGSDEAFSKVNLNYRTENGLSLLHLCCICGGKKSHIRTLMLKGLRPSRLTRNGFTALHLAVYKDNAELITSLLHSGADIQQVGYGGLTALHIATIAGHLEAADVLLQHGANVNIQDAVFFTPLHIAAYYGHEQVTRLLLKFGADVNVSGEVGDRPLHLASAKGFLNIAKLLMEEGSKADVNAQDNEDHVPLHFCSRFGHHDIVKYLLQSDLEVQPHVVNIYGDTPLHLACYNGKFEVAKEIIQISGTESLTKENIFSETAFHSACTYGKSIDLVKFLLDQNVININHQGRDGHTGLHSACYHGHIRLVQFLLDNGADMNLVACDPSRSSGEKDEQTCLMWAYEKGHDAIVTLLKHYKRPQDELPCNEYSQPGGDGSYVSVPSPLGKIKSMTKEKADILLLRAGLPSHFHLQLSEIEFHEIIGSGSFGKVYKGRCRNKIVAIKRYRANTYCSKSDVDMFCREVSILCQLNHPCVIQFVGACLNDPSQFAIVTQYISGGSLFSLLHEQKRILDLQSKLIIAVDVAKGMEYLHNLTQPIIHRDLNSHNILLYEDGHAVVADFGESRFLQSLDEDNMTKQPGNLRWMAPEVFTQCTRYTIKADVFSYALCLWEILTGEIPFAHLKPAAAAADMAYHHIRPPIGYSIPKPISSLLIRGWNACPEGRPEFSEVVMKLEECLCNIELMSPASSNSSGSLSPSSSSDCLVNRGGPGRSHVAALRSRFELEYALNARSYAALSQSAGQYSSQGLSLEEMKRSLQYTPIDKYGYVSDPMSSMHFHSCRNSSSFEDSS
Assay [10] deals with Phosphatidylinositol 4,5-bisphosphate 3-kinase catalytic subunit alpha isoform (Homo sapiens), P42336 [Q546K]. Kind of assay: Selectivity interaction (KinomeScan (DiscoverX)) EUB0000710a PIK3CA. The settings on record: at 1 µM.
Chain of Phosphatidylinositol 4,5-bisphosphate 3-kinase catalytic subunit alpha isoform (Homo sapiens), P42336 [Q546K] (P42336 whole entry Q546K, canonical isoform): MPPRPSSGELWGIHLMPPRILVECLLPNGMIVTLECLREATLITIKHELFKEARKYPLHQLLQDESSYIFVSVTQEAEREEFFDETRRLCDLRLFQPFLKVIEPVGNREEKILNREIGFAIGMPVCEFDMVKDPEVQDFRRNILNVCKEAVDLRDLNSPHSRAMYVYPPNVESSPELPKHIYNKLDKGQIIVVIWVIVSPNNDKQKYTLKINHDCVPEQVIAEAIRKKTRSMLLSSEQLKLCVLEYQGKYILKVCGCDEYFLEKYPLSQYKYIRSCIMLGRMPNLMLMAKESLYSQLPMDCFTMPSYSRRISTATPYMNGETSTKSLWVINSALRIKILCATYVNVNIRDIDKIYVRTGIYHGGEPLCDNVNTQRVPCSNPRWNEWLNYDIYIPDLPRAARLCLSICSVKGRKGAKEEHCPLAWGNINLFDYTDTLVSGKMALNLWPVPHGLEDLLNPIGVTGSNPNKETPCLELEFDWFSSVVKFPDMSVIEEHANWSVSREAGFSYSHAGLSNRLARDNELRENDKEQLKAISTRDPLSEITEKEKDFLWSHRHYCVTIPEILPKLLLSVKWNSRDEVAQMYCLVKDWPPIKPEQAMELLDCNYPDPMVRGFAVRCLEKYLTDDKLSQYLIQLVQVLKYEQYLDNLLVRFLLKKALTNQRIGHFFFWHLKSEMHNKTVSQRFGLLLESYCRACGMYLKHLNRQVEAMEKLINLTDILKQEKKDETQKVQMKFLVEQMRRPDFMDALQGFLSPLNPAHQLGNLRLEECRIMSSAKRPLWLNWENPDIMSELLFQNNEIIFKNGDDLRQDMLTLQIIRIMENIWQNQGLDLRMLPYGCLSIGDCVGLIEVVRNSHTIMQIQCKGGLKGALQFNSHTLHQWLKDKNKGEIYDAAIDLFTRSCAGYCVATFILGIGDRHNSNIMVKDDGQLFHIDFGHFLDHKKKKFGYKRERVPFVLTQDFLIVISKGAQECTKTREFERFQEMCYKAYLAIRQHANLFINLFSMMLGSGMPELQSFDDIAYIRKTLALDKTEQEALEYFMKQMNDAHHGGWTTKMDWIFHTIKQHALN
Assay [11] addresses T3, Gamma-aminobutyric acid receptor subunit alpha-1 (Homo sapiens, UniProt P14867).
T3 sequence (P14867 whole entry): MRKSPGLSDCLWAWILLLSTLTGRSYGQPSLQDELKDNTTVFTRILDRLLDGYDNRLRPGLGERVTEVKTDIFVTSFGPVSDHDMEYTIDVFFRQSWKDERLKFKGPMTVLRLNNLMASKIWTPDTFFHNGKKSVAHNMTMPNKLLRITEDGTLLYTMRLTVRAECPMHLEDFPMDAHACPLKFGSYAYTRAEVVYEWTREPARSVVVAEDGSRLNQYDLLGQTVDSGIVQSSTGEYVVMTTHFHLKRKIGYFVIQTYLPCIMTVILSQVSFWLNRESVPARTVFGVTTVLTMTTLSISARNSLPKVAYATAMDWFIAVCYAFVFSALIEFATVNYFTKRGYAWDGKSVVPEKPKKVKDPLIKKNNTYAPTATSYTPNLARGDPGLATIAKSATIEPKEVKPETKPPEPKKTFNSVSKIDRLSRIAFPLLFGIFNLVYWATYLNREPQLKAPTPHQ
Kind of assay: Selectivity interaction (GPCR panel (PDSP screen)) EUB0000326a GABRA1.

Assay [12] addresses T4, Ephrin type-B receptor 6 (Homo sapiens) (UniProt O15197).
T4 sequence (whole entry): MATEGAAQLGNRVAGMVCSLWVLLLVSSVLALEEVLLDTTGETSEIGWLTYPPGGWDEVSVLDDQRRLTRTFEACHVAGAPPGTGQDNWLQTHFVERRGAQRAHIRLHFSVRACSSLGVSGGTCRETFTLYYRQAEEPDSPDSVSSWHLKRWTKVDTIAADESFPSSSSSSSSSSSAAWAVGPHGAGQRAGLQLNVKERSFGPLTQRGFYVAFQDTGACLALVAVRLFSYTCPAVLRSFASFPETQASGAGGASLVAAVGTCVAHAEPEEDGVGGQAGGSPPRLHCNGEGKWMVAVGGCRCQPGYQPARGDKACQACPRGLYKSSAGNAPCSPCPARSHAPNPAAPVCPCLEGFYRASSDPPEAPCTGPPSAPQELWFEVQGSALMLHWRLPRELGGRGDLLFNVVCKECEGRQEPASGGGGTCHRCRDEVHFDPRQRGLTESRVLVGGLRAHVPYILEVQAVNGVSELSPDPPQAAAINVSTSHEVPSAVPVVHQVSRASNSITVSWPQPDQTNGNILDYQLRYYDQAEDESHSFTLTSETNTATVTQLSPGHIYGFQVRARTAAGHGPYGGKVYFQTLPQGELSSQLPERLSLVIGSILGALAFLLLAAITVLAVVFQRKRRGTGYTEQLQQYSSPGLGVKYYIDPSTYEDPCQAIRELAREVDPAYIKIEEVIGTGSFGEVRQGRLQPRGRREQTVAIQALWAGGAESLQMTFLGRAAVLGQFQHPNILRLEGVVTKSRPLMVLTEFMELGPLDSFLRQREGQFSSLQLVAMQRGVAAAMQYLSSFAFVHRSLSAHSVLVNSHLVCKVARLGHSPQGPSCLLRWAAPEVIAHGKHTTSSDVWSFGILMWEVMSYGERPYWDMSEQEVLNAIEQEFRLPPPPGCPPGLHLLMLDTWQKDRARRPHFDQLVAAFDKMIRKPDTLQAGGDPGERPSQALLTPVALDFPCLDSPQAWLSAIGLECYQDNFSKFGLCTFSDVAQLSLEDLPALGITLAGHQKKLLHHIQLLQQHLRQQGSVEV
Kind of assay: Selectivity interaction (KinomeScan (DiscoverX)) EUB0000326a EPHB6. Particulars: Inhibition of LnCaP-FGC cell proliferation > […] µM (PMID: 28953875);, Selectivity Remarks Screened at 1 µM (in vitro, >[…]-fold less potent then probe A-485), Selectivity Source Knowledge ht.

Assay [13] addresses High affinity nerve growth factor receptor (Homo sapiens, UniProt P04629). Kind of assay: Selectivity interaction (KinomeScan (DiscoverX)) EUB0000326a NTRK1. Particulars: Inhibition of LnCaP-FGC cell proliferation > […] µM (PMID: 28953875);, Selectivity Remarks Screened at 1 µM (in vitro, >[…]-fold less potent then probe A-485), Selectivity Source Knowledge ht.
In assay [14] the target is Phosphatidylinositol 4,5-bisphosphate 3-kinase catalytic subunit alpha isoform (Homo sapiens, UniProt P42336). Nature of the assay: Selectivity interaction (KinomeScan (DiscoverX)) EUB0000326a PIK3CA. Particulars: Inhibition of LnCaP-FGC cell proliferation > […] µM (PMID: 28953875);, Selectivity Remarks Screened at 1 µM (in vitro, >[…]-fold less potent then probe A-485), Selectivity Source Knowledge ht.
Chain of Phosphatidylinositol 4,5-bisphosphate 3-kinase catalytic subunit alpha isoform (P42336 whole entry, canonical isoform): as the sequence (P42336 whole entry Q546K, canonical isoform) above, with K546Q counted along it

Chain of Dual specificity protein kinase CLK1 (P49759 whole entry): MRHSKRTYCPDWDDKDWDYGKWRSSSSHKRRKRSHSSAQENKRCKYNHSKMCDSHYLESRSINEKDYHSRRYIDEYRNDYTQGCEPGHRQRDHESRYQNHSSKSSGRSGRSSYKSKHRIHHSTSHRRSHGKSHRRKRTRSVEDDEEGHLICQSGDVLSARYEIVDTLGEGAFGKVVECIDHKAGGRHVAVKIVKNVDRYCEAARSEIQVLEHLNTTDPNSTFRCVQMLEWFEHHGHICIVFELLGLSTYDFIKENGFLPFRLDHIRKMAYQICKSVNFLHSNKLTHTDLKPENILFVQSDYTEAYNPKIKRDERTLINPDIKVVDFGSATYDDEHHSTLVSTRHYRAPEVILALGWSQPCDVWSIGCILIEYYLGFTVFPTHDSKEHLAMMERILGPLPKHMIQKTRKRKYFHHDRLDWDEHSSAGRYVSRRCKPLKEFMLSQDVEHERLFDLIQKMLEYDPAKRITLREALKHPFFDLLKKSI
Chain of Epidermal growth factor receptor (Homo sapiens), P00533 [L861Q] (P00533 whole entry L861Q): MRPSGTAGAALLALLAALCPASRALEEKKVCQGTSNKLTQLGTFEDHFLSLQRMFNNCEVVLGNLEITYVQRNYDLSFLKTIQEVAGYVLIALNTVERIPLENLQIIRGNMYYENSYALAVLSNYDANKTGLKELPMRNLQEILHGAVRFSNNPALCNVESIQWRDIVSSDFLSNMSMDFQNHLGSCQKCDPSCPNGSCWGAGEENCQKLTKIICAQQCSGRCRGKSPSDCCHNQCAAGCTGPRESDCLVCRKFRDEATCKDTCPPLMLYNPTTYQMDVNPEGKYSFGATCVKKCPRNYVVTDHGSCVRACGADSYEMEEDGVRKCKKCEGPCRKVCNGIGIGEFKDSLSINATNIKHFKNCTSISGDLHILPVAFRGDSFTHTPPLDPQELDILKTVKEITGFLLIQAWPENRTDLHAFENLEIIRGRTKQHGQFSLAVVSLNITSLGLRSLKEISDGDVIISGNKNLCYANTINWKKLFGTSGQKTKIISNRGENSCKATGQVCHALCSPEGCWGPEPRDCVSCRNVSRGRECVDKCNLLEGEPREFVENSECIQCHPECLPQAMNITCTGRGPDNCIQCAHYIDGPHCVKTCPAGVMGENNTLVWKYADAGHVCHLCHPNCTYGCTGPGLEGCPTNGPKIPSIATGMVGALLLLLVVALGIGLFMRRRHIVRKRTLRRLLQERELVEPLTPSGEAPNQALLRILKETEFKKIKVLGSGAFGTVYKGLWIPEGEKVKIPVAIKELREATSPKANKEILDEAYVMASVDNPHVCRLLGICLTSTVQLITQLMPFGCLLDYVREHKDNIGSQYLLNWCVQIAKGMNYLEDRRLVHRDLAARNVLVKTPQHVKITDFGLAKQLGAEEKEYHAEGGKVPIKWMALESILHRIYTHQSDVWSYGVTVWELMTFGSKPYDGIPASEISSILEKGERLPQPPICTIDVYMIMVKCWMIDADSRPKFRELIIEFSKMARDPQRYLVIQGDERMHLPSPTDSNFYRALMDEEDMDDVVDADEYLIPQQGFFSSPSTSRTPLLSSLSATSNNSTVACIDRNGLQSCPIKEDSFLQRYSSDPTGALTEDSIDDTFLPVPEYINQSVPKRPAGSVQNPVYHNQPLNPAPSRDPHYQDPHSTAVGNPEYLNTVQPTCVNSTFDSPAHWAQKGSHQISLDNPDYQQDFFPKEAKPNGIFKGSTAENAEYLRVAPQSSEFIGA

For the compound `NC(=O)c1ccc2nc(-c3ccc(C4(N)CCC4)cc3)c(-c3ccccc3)n2n1` [BAY-1125976], the Kd amounted to 330 nM in [1], 310 nM in assay [2] and 210 nM in [3].
As for `Cc1cnc(-c2cc(Cl)ccc2F)cc1-n1c(=O)n(CC(N)=O)c2ccccc21` [Al11], in [4], the affinity corresponds to a Ki of 1880 nM. For the same compound, the % of control in assay [5] stood at 54%; in assay [6], 49%; in [7], 47%; in assay [8] it was 39.5%; in assay [9] it was 51%; in [10], 41%.
As for `CNC(=O)Nc1ccc2c(c1)[C@@]1(CC2)OC(=O)N(CC(=O)N(Cc2ccc(F)cc2)[C@@H](C)C(F)(F)F)C1=O` [A-486], the inhibition constant (Ki) in assay [11] stood at 2580 nM. Also, the % of control in assay [12] is 0%; in assay [13], 41%; in assay [14] it was 28%.
